What was measured:
Sprague Dawley rat pups = assay: rodent model of VGB-induced IME (white matter injury and vacuolation); type: in vivo
Protocol: Model of VGB-induced IME. We adhere to the same protocol used by Ovation in recent studies. Sprague Dawley rat pups are treated from postnatal day 4-25 with VBG (50 mg/kg) or vehicle. This is administered by oral gavage to rats starting on PND 4. The single dose of 50 mg/kg was selected on the basis of the previous study in which it produced vacuolar lesions (24, 31). Rats are sacrificed at P25 and perfused with 4% paraformaldehyde. Brains are cryoprotected in sucrose for frozen sectioning.
Treatment groups. We use an n of 15 animals per group. Vehicle only, VGB alone, or VGB and bumetanide. The doses are daily.
Histological and immunocytochemical methods. Using our published protocols for quantification of white matter myelination (29) we perform MBP staining. 16 μm coronal cryostat sections (Leica CM3050 S) were collected on Superfrost Plus slides. […]
Data analysis. Fluorescence images are obtained on a Zeiss Axioscope, using a Spot digital camera and Advanced 4.5 software (Diagnostic Instruments). […] ImageJ software is used to quantitate MBP and O4 immunostaining as a proportion of the white matter capsule area (29). This methodology was validated with ImageJ software quantitation of total area of MBP immunostaining within each 2.4 mm2 field. […]

NKCC1 = target: T1, NKCC1 (Rattus norvegicus, UniProt E9PTX9); conditions: bumetanide 0.1 mg/kg, rats, prior work; cited from earlier work
T1 construct: host or cells: rat brain, in vivo (endogenous protein)
T1 sequence (E9PTX9 1-1203): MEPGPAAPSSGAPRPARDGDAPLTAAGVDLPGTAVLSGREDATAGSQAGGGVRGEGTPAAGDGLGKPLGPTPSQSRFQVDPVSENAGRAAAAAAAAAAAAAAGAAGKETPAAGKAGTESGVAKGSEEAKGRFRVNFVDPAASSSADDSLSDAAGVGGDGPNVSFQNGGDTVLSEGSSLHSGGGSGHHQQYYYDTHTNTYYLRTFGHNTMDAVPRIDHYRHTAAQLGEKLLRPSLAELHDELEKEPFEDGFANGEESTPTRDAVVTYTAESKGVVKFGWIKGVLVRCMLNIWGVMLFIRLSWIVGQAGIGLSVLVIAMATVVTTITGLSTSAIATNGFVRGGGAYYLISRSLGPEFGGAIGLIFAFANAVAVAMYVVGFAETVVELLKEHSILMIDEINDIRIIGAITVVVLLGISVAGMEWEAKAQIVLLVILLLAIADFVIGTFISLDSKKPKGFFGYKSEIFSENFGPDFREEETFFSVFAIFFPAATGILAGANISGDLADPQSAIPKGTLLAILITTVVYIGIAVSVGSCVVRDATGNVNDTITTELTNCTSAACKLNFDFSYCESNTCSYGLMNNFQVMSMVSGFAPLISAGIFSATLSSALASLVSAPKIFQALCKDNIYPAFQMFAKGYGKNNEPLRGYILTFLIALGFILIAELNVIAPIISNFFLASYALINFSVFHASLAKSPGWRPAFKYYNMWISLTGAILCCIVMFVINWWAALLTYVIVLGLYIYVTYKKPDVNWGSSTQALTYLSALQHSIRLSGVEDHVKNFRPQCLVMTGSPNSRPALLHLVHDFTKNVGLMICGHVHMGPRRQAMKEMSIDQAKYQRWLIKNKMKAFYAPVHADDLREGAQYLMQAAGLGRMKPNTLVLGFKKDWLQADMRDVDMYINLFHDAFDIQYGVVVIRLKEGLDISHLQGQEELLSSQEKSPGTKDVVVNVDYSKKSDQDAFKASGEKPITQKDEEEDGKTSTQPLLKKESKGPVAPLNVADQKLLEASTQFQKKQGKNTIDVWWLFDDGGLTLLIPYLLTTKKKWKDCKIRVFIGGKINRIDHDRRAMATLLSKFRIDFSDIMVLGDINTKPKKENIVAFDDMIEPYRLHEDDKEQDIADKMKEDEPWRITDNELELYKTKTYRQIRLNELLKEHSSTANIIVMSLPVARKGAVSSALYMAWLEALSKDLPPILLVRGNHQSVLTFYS

Sprague Dawley rats = assay: rat model of vigabatrin (VGB)-induced retinal toxicity, histopathologic analysis of retina; conditions: for VGB-induced retinal toxicity: 30 days
Protocol: We closely follow the methods of Duboc, et al (12) that recommend 30 days of treatment in juvenile rats to induce a lesion.
Model of VGB-induced toxicity. VGB is administered to young adult/juvenile Sprague Dawley rats between 6-7 weeks of age for a period of 30 days. VGB is dissolved in 0.9% NaCl at 100 mg/mL and injected intraperitoneally (i.p.) daily for 30 days at doses of 5 and 3 mg/day as described for treatment of animal epilepsy (26).
Treatment groups. We use of 15 animals per group. […] The doses are daily.
Histopathologic analysis of retina. As per established protocols eye cups are fixed overnight at 4° C. in 4% (wt/vol) paraformaldehyde in phosphate buffered saline PBS) 0.01M, pH 7.4. After cryoprotection in PBS containing successively 10, 20, and 30% sucrose at 4° C., the tissue is embedded in OCT (Labonord, Villeneuve d'Ascq, France). A preliminary analysis of general retinal morphology is performed on vertical sections (8-10 μm thickness) using hematoxylin and eosin. Additional sections are permeabilized for 5 minutes in PBS containing 0.1% Triton X-100 (Sigma, St. Louis, Mo.), rinsed, and incubated in PBS containing 1% bovine serum albumin (Eurobio, Les-Ulis, France), 0.1% Tween 20 (Sigma), and 0.1% sodium azide (Merck, Fontenay-Ss-Bois) for 2 hours at room temperature. The primary antibody is added to the solution and incubated for 2 hours at room temperature. Antibodies were anti-GFAP rabbit polyclonal antibody (1:400; DAKO), and antiactive caspase-3 rabbit polyclonal antibody (1:100; Cell Signaling Technology, Beverly, Mass.). […] Cone photoreceptors are stained with peanut agglutinin lectin coupled to Texas Red (PNA, 1:40; Sigma). […] The dye, diamidiphenyl-indole (DAPI), is added to any incubation solution. Sections are mounted with Fluorsave reagent (Calbiochem, San Diego, Calif.). PNA-stained cone inner/outer segments are counted on retinal sections in eight consecutive 300 μm-wide optical windows on each side of the optic nerve under the 40× objective. Areas with a disorganized outer nuclear layer are specifically excluded from this count. Vertical sections are stained with hematoxylin and eosin.
Tissue Preparation for Electron Microscopy. […] The tissue is rinsed in cacodylate 0.15M and postfixed in 1% osmium tetroxide (Electron MicroscopySciences) for 1 hour. After dehydration in ethanol, and propylene oxide, the tissue is embedded in epon. Semithin sections are stained with methylene blue and ultrathin sections (80 nm) contrasted with lead citrate and uranyl acetate.
Data analysis. For quantification we use the same outcome measures of retinal injury as Duboc et al and Jammoul et al (12, 25). Vertical sections along the dorsoventral axis are selected at the optic nerve. After DAPI nuclear staining, the lengths of disorganized retinal areas are measured; GFAP immunostaining is used for detection and quantification of retinal areas with reactive gliosis. The cone photoreceptor density is calculated after cone arrestin immunostaining to visualize the inner/outer segments of cone photoreceptors; areas with disorganized retinal layering were excluded.

[1] = FDA not approvable action 1998; cited from earlier work
[2] = bumetanide higher dose (0.2 mg/kg)

Structure (SMILES)	protection against VGB-induced white matter injury / IME (Sprague Dawley rat pups; higher dose of bumetanide (0.2 mg/kg) with VGB 50 mg/kg/day)	protection against VGB-induced white matter injury / IME (Sprague Dawley rat pups; lower dose of bumetanide (0.1 mg/kg/day i.p.) with VGB 50 mg/kg/day, PND 4-25)	suppression of NKCC1 in brain (NKCC1)	VGB-induced retinal toxicity (Sprague Dawley rats; bumetanide 0.2 mg/kg dose with VGB)	adverse effects of diuresis (Sprague Dawley rats; [2])	effects on body weight or skin turgor (Sprague Dawley rats; [2])	VGB-induced retinal toxicity (Sprague Dawley rats; lower dose of bumetanide 0.1 mg/kg i.p. daily with VGB 5 mg/day)	incidence of permanent vision loss [1] [%]	vigabatrin toxicity in retina (histopathology) (Sprague Dawley rats; VGB i.p. daily for 30 days, juvenile rats)
CCCCNc1cc(C(=O)O)cc(S(N)(=O)=O)c1Oc1ccccc1 [bumetanide, Bumetanide]	additional efficacy	shows protective efficacy	effectively suppresses NKCC1 in brain	additional efficacy	no adverse effects of any modest diuresis	nor any significant effects on body weight or skin turgor	significant decrease in toxicity		
C=CC(N)CCC(=O)O (stereo not drawn) [vigabatrin, gamma-vinyl-GABA]								30	photoreceptor injury/loss and vacuolization
